Measurements as given in patent US5378694A, “Acyl and alkoxy substituted quinolines” (Schering Corporation, priority 1993, dated 1995).
Where two headings read alike, the source gives them in different places.

Assays:
HSV-2, strain MS = assay: In vivo anti-HSV efficacy, prophylactic guinea pig model of HSV infection; settings: 60 mg per kg s.c., T.I.D., 10 days; for Neurological Dysfunction (%): percentage of animals developing loss of bladder/hindlimb control, placebo 66; for MLS (Maximum Lesion Scores): scale of 1 to 4, first dose 24 hours before infection, placebo 2.22
Method: The in vivo assessment of anti-HSV efficacy was determined in the prophylactic guinea pig model of HSV infection described by Stansberry et al. (1982). Dosing of guinea pigs comprised an initial treatment with test compound given 24 hours prior to virus infection and subsequent administration of the compound every eight hours (T.I.D.) for a total of 10 days. Test compounds were administered subcutaneously in 0.5% buffered methyl cellulose at a dose of 60 mg per kg body weight of the animal. Animals were monitered daily for the development of genital lesions and neurological symptomology, both of which were recorded and compared to the results obtained with parallel groups which received placebo or acyclovir. Efficacy was evaluated for each compound by scoring the ability of the compound to ameliorate genital lesions produced by infection with HSV-2, strain MS, expressed as Maximum Lesson Scores (MLS) on a scale of 1 (least lessions) to 4 (severe lessons).

[1] = biological target: T1, cGMP phosphodiesterase (cGMP-PDE) (Bos taurus, UniProt Q28156); assay: Phosphodiesterase inhibition in vitro (cGMP-PDE); format: biochemical; settings: bovine lung cGMP-PDE; 1 μM 3H-cGMP, pH 7.5, 25 minutes, room temperature
T1 construct: is a homogeneous enzyme obtained from bovine lung; from tissue; host or cells: bovine lung

[2] = Compound toxicity assay: inhibition of HeLa cell translation (3H-LEU assay); format: cell-based; settings: human; HeLa cells, cellular translational activity; read-out: CYTOTOXICITY 3H-LEU ASSAY IC50
Method: HeLa cells were treated with inhibitory compound for 24 hours, after which levels of translational activity were assayed.
For assay of translational activity, HeLa cultures were grown to 80% confluency in 96 well microtiter plates, treated with appropriate concentrations of compound in 2% EMEM during an overnight incubation at 37° C., then rinsed with HBSS and overlaid with […] of 2% EMEM containing 8 μCi of tritiated leucine (^3 H-LEU, 141 Cu/mMol, Amersham Corp., Arlington Heights Ill.). After a 1 hour incubation at 36.5° C., the cells were rinsed twice with phosphate-buffered saline (PBS) and lysed in 400 ul/well of 1 × PBS, 0.5% sodium dodecyl sulphate (SDS). After a 10 min incubation at 36.5° C., the contents of the well were transferred to a well in a Millititer HA microfiltration plate (Millipore Corp., Bedford, Mass.). The TCA-insolubleproteins were precipitated onto the filter disc by a 10 min fixation with 5% TCA, followed by filtration under vacuum and three 10 minute rinses with 95% ethanol. The filters were dried at room temperature, cut from the milltitier plate and transferred to scintillation vials. TCA-precipitable counts were assayed in 5 ml of Scintisol (Isolab, Akron, Ohio). The inhibitory activity of a compound was plotted versus the concentration and an IC50 value (that concentration of the compound required to decrease cellular translational activity by 50%) was derived for each compound.

HSV-2 (strain MS) = assay: Transient expression of beta galactosidase in transfected HeLa cells superinfected with HSV-2 (HSV-β-Gal assay); format: cell-based; settings: 24 hours
Method: HeLa and Vero cell cultures were maintained in Eagles Minimal Essential Medium (EMEM) which was supplemented with glutamine, penicillin, streptomycin and 10% fetal calf serum (10% EMEM). Stock cultures of HSV-2 (strain MS available from ATCC VR-540) were grown in and harvested from Vero cells. Viral stocks were titered in Vero cells according to established procedures.
Plasmid pON^ori- 245 contains the promoter of the HSV-1 thymidine kinase (tk) gene located immediately 5' of the E. coli lac Z gene. In this arrangement, the tk promoter controls transcription from the bacterial gene in transient expression assays. Additionally, an SV40 polyadenylation signal is present at the 3' end of the lac Z gene to allow for the efficient translation of the mRNA in eucaryotic cells. The expression of beta galactosidase in a transient assay using pON 245^ori- is dependent upon superinfection of the transfected cells with HSV. […] For example, see European Patent Application No. 88302149.5 filed Mar. 11, 1988 and published Sep. 14, 1988 as 282,330, the disclosure of which is incorporated herein by reference thereto.
HeLa cells were seeded into 96 well microtiter plates and allowed to grow to 80% confluency (approximately 35000 cells/well). One half microgram of plasmid pON 245^ori- DNA was introduced into the cells of each well by the […] precipitation technique (Grabman and Van der Eb, 1973). Four to six hours later, the cells were rinsed with Hank's Balanced Salt Solution (HBSS), overlaid with 10% EMEM and incubated at 37° C. At 24 hours post-transfection, cells were rinsed, overlaid with 10% EMEM again and re-incubated at 37° C. At 48 hours post-transfection, cells were rinsed and overlaid with either EMEM containing 2% fetal calf serum (2% EMEM), 2% EMEM containing HSV-2 (strain MS, Multiplicity of Infection [moi]=5 pfu/cell) or 2% EMEM containing HSV-2 and the appropriate concentration of the compound to be tested. Twenty-four hours later, the cells were harvested and assayed for beta-galactosidase activity as described below.
All determinations of beta galactosidase activity were performed in 96-well microtiter plates. The intracellular level of beta-galactosidase activity in each well was determined from cell lysates of the monolayer cultures. Aliquots were assayed by incubation in the presence of beta-galactosidase substrate, 4-methylumbelliferyl-β-D-galactoside (MUG, 125 ug/ml, Sigma), for 2 hours. The generation of fluorescent product was quantified on a Microfluor microfluorimeter (Dynatech) after addition of 0.1M glycine, pH 10.3 (Spaete and Mocarski, 1985). The inhibitory activity of a compound was plotted versus the concentration and an IC50 value (the concentration in mcg/ml of compound required to reduce beta-galactosidase expression by 50%) was obtained for each compound tested.

[3] = SHR assay, blood pressure in conscious spontaneously hypertensive rats; format: in vivo, rat (spontaneously hypertensive rats; settings: P.O.
Method: The ability of the compounds to lower blood pressure can be assessed in vivo in conscious spontaneously hypertensive rats (SHRs). SHR males are purchased from Taconic Farms, Germantown, N.Y. and are approximately 16-18 weeks old when anesthetized with ether. The caudal (ventral tail) artery is cannulated with polyethylene tubing (PE50), and blood pressure and heart rate are recorded as described by Baum, T. et. al., J. Cardiovasc. Pharmacol., Vol 5, pp. 655-667 (1983). Rats are placed into plastic cylindrical cages where they rapidly recover consciousness. Blood pressure and heart rate are allowed to stabilize for approximately 90 minutes prior to administration of the test compound. Compounds are administered orally as solutions or suspensions in 0.4% aqueous methylcellulose vehicle via a feeding needle. The compound or 0.4% aqueous methylcellulose vehicle is given in a volume of 4 ml/kg to SHRs that been fasted overnight. Activity is expressed as the fall in mean blood pressure (MBP) in millimeters of mercury (mm Hg). Compound-induced changes are compared with the changes in an appropriate placebo group.

HSV-2 = settings: against HSV-2; cited from earlier work
HSV = settings: humans; cited from earlier work
herpes virus = settings: mammals; cited from earlier work
HSV-1 = settings: against HSV-1; cited from earlier work
[4] = Human alphaherpesvirus 2, moi 5 pfu/cell, read-out: ANTI-HSV ACTIVITY HSV-β-Gal ASSAY IC50
[5] = Human alphaherpesvirus 2, Repeat, moi 5 pfu/cell, read-out: ANTI-HSV ACTIVITY HSV-β-Gal ASSAY IC50 (repeat)

SMILES | CC50 at 24 h [2] [µg/mL] | IC50 (HSV-2 (strain MS); [4]) [µg/mL] | other results
Nc1nc2c(ncn2COCCO)c(=O)[nH]1 [Acyclovir, 9-[(2-hydroxyethoxy)methyl]guanine, reference compound] |  |  | Neurological Dysfunction (%) (HSV-2, strain MS): 44%; MLS (Maximum Lesion Scores) (HSV-2, strain MS): 1.61
Cc1cccc2c(O)c(C=O)c(=O)n(Cc3ccccc3)c12 [Formula 1.3] | 29 | 3 | IC50 [1]: 10 µM; Fall in MBP ([3]; 25 mpk): 7 mm Hg
CCCCCCCn1c(=O)c(C=O)c(O)c2ccccc21 [Formula 1.4] | 32 | 4 | IC50 (HSV-2 (strain MS); [5]): 4 µg/mL
Cc1ccc2c(c1)c(O)c(C=O)c(=O)n2Cc1ccccc1 [Formula 1.5] | 16 | 4 | IC50 [1]: 90 µM; Fall in MBP ([3]; 50 mpk): 40 mm Hg
O=Cc1c(O)c2cc(Cl)ccc2n(Cc2ccccc2)c1=O [Formula 1.6] | 15 | 4 | IC50 [1]: 17 µM; Fall in MBP ([3]; 25 mpk): 48 mm Hg
Cn1c(=O)c(C=O)c(O)c2ccccc21 [Formula 1.7] | 56 | 7 | IC50 (HSV-2 (strain MS); [5]): 7 µg/mL
O=Cc1c(O)c2ccccc2n(Cc2ccccc2)c1=O [Formula 1.8] | 29 | 7 | 
O=Cc1c(O)c2ccccc2n(-c2ccccc2)c1=O [Formula 1.9] | 12 | 8 | IC50 [1]: 18 µM; Neurological Dysfunction (%) (HSV-2, strain MS): 0%; MLS (Maximum Lesion Scores) (HSV-2, strain MS): 0.67
O=Cc1c(O)c2cc(OCc3ccccc3)ccc2n(Cc2ccccc2)c1=O [Formula 1.10] | 32 | 10 | 
CCCCCCn1c(=O)c(C=O)c(O)c2ccccc21 [Formula 1.11] | 20 | 8 | 
O=Cc1c(O)c2cc(O)ccc2n(Cc2ccccc2)c1=O [Formula 1.12] |  | 13 | 
COc1ccc(OCCCOCn2c(=O)c(C=O)c(O)c3ccccc32)c(Cl)c1 [Formula 1.14] |  | 18 | 
O=Cc1c(O)c2ccc(Cl)cc2n(Cc2ccccc2)c1=O [Formula 1.15] | 23 | 5 | 
CC1(C)C(=O)C(C=O)=C(O)c2ccccc21 [Formula 1.16] | 34 | 7 | 
CCN(CC)CC(=O)Nc1c(C)cccc1C [lidocaine, 2-(diethylamino)-N-(2,6-dimethylphenyl)acetamide] |  |  | antiviral activity in cell culture (in words) (HSV-2): antiviral agent in cell culture against HSV-1 and HSV-2; treatment of HSV oral and genital lesions (in words) (HSV): particularly effective in the treatment of HSV oral and genital lesions in humans; treatment of herpes virus infections (in words) (herpes virus): able to treat herpes virus infections of mammals; antiviral activity in cell culture (in words) (HSV-1): antiviral agent in cell culture against HSV-1 and HSV-2
